Where two headings read alike, the source gives them in different places.
Tests used:
TNF-α = biological target: T1, TNF-α (Homo sapiens, UniProt P01375); test: Microscale thermophoresis (MST) binding affinity to Cy5-labelled recombinant TNF-α; details: for Kd: PBS pH 7.5, 25° C., mean of six independent test series
T1 construct: purchased Acrobiosystems, USA
Method: (§1) In addition to thermodynamic stability, the binding affinity of the biopharmaceuticals in compositions according to the present invention was determined and compared with the binding affinity in corresponding reference compositions.
(§2) Binding studies were performed using microscale thermophoresis (MST) with the Monolith NT.115 device (NanoTemper Technologies, Munich, Germany).
(§3) For the MST measurements, 10 microliters each of the biopharmaceutical at a concentration of […] were mixed with 10 microliters each of a serial dilution of methotrexate disodium in PBS buffer pH 7.5 to prepare the compositions according to the invention. The final concentration of MTX in all samples was 55 micromoles per liter, while the concentration of the respective ligand ranged from 1.5 micromoles per liter to 25 millimoles per liter.
(§4) Samples were loaded into coated capillaries (NanoTemper Technologies) according to the manufacturer's instructions and fluorescence was recorded for 20 seconds at 100% laser power and 40% MST power. The temperature of the instrument was set at 25° C. for all measurements. After the recordal of MST time traces, the data were analyzed. The equilibrium dissociation constant (KD) was determined based on the change in normalized fluorescence as a function of the concentration of the corresponding ligand after 14 seconds of thermophoresis using MO affinity analysis software (NanoTemper Technologies).
(§5) The values shown are the arithmetic mean values from six independent test series in each case.

[1] = Thermal unfolding profiles (Tycho NT.6 fluorimeter): temperature stability of the biologic with or without MTX; type: physicochemical
Text: To prepare the compositions according to the invention, the biologics were combined with methotrexate disodium at concentrations of 25 milligrams per milliliter, 16.6 milligrams per milliliter, 10.0 milligrams per milliliter, 7.14 milligrams per milliliter, and 5.0 milligrams per milliliter, respectively. Phosphate buffered saline (PBS buffer) pH 7.5 was used as the solvent. As reference composition in each case served the biopharmaceutical in equivalent concentration in PBS buffer pH 7.5 without the addition of methotrexate disodium.
In each case, the above-noted concentrations were the final concentration of the biopharmaceutical or the methotrexate in the pharmaceutical composition.
After 20 days of incubation, the compositions were measured using a Tycho NT.6 fluorimeter (NanoTemper Technologies, Munich, Germany) according to the manufacturer's instructions to determine the thermal unfolding profiles of the biologics.
The inflection point of each curve indicates the denaturation temperature of the biopharmaceutical in the composition.

CD80 = test: Microscale thermophoresis (MST) binding affinity to Cy5-labelled recombinant CD80; details: for Kd: PBS pH 7.5, 25° C., mean of six independent test series
Sequence of CD80 (P33681 35-288): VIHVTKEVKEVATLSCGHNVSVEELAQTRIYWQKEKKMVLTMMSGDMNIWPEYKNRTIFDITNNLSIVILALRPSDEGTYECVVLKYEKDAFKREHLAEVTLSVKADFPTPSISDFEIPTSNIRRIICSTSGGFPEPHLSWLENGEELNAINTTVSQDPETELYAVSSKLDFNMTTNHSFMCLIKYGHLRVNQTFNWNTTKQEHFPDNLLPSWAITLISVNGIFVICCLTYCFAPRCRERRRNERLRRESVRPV
Method: as §1, §2
Recombinant TNF-α, CD20, and CD80 (Acrobiosystems, USA) were labeled for MST measurements using the fluorescent dye Cy5 (Thermo Fisher Scientific, Germany) according to the manufacturer's instructions. The concentration of the recombinant proteins was measured after labeling using a UV-Vis spectrophotometer, and a labeling efficiency of 80 was determined.
as §3, §4, §5

[2] = biological target: T2, Recombinant CD20 (Acrobiosystems), Cy5-labelled (UniProt P11836 1-297, limits assumed, labelled with fluorescent dye Cy5 (site not stated)); test: microscale thermophoresis, Cy5-labelled CD20, PBS pH 7.5, 25 °C, with methotrexate disodium; mean of six series
T2 construct: Bought recombinant protein; construct not described; also called B-lymphocyte antigen CD20
T2 sequence (looked up): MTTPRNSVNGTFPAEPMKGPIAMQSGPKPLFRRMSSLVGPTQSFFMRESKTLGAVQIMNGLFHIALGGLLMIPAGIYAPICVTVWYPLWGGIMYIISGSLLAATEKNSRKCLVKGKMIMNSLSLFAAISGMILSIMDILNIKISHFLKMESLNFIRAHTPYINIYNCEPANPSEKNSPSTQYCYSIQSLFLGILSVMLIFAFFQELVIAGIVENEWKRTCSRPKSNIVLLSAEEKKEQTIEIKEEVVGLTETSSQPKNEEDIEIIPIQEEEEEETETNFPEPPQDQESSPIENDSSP

[3] = biological target: T2, Recombinant CD20 (Acrobiosystems), …; test: microscale thermophoresis, Cy5-labelled CD20, PBS pH 7.5, 25 °C, reference without MTX; mean of six series
[4] = biological target: T2, Recombinant CD20 (Acrobiosystems), …; test: microscale thermophoresis; KD with MTX against the reference without MTX
[5] = MTX 55 micromoles per liter, read-out: KD with MTX
[6] = read-out: KD without MTX (reference)

T1 sequence (P01375 77-233 limits assumed): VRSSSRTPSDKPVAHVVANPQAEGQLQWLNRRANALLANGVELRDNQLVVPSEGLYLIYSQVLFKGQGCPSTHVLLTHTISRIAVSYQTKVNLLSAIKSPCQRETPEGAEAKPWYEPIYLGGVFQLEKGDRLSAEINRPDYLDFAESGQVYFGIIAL

What does the source list for Etanercept?
Kd (TNF-α; [5]): 0.005 nM; Kd (TNF-α; [6]): 0.0116 nM; temperature stability in composition with MTX ([1]; MTX 5 milligrams per milliliter, PBS pH 7.5, 20 days of incubation): 74.3 °C; denaturation temperature / temperature stability in reference composition without MTX ([1]; PBS buffer pH 7.5, without MTX, after 20 days of incubation): 73.9 °C

Which Kd (TNF-α; [5]) does the source give for Adalimumab here?
Its Kd is 0.14 nM.

And the Kd (TNF-α; [6])?
Its Kd is 0.147 nM.

And the “binding affinity / binding strength in composition with MTX compared to control without MTX” value (TNF-α; in words, the b130 statement covers all tested ligands (TNF-α, CD20, CD80))?
The value was “higher binding affinity”.

What about the “Relative increase in binding strength” value (TNF-α; with MTX vs without MTX) of the same molecule?
The value was 5%.

With “Rituximab: biologic that specifically binds B-lymphocyte antigen CD20 (trade names: MabThera, Rituxan)” as the molecule, how does the Kd (CD80; [5]) read?
The Kd was 6.8 nM.

And the Kd (CD80; [6])?
Its Kd is 11.3 nM.

What about the “Relative increase in binding strength” value (CD80; with MTX vs without MTX) of the same molecule?
Its value is 66%.

B1: Rituximab (MabThera) (antibody, V domains shown)
VH: QVQLQQPGAELVKPGASVKMSCKASGYTFTSYNMHWVKQTPGRGLEWIGAIYPGNGDTSYNQKFKGKATLTADKSSSTAYMQLSSLTSEDSAVYYCARSTYYGGDWYFNVWGAGTTVTVSA
VL: QIVLSQSPAILSASPGEKVTMTCRASSSVSYIHWFQQKPGSSPKPWIYATSNLASGVPVRFSGSGSGTSYSLTISRVEAEDAATYYCQQWTSNPPTFGGGTKLEIK
Which results are given for B1?
Kd [2]: 6.8 nM; Kd [3]: 11.3 nM; Relative increase in binding strength [4]: 66%
